# Test results published in ChEMBL document CHEMBL1129998, “Pharmacological options in the treatment of benign prostatic hyperplasia” (J Med Chem, 1997).
# Assays:
# [1] = biological target: T1, Alpha-1B adrenergic receptor (Rattus norvegicus, UniProt P15823); test: Binding affinity was tested on CEC-pretreated rat liver Alpha-1B adrenergic receptor
# T1 sequence (P15823 whole entry): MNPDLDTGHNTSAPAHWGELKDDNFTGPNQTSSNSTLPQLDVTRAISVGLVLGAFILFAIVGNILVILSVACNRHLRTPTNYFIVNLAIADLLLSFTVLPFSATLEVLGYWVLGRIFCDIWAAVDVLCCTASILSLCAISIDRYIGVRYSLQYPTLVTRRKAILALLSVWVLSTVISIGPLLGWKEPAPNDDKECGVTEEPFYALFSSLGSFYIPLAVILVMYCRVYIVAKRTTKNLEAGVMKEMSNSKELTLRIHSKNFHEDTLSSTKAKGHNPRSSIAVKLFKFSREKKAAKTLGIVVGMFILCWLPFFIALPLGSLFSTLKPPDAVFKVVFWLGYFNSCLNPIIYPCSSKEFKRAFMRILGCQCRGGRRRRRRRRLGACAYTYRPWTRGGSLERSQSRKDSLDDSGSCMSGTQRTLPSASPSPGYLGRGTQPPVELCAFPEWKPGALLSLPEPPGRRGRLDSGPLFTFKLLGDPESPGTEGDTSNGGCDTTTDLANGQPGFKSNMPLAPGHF
# [2] = biological target: T2, Alpha-1A adrenergic receptor (Rattus norvegicus, UniProt P43140); test: Binding affinity was tested on CEC-pretreated rat hippocampus Alpha-1A adrenergic receptor; format: tissue-based
# T2 sequence (P43140 whole entry): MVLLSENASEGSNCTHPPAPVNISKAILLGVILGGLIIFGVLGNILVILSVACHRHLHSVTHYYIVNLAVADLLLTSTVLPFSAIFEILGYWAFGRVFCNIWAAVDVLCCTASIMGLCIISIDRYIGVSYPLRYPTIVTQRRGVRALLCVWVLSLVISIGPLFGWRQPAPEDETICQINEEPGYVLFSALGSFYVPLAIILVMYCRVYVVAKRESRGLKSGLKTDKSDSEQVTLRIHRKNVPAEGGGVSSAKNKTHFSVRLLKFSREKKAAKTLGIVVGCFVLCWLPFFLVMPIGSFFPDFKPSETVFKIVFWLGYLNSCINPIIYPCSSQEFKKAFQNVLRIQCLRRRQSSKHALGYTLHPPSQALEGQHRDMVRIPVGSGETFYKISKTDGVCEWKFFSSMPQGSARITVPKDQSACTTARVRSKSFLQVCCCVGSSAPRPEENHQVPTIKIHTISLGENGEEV
# [3] = biological target: T3, 3-oxo-5-alpha-steroid 4-dehydrogenase 2 (Homo sapiens, UniProt P31213); test: Inhibitory concentration on human prostatic 5-alpha reductase 2 isozyme
# T3 sequence (P31213 whole entry): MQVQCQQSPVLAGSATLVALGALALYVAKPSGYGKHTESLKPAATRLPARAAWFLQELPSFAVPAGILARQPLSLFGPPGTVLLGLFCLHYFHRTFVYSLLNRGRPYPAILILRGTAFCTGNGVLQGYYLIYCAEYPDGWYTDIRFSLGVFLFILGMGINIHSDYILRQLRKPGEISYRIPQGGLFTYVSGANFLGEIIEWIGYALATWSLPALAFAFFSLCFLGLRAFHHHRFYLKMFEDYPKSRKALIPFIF
# [4] = biological target: T4, Steroid 5-alpha-reductase (Rattus norvegicus, UniProt P24008+P31214); test: Apparent binding affinity on rat 5-alpha reductase isozyme; format: protein assay
# T4 sequence (P24008 whole entry): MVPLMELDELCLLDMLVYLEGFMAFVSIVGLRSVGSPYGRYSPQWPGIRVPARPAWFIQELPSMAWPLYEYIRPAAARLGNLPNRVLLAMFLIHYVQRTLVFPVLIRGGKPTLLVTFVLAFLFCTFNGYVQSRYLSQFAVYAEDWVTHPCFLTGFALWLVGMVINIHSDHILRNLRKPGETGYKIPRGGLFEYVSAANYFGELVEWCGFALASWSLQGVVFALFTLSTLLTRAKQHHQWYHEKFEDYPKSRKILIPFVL
# T4 sequence (P31214 whole entry): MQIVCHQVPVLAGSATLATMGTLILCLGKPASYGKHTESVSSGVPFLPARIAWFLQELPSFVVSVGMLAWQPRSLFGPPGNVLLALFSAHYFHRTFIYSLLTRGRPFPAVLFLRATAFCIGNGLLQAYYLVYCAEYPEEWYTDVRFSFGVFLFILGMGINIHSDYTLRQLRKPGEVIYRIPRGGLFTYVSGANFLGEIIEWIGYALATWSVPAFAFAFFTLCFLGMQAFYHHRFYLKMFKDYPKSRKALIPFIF
# [5] = Apparent binding affinity on human 5-alpha reductase isozyme
# [6] = biological target: T5, Alpha-1B adrenergic receptor (Homo sapiens, UniProt P35368); test: Binding affinity was tested on human Alpha-1B adrenergic receptor
# T5 sequence (P35368 whole entry): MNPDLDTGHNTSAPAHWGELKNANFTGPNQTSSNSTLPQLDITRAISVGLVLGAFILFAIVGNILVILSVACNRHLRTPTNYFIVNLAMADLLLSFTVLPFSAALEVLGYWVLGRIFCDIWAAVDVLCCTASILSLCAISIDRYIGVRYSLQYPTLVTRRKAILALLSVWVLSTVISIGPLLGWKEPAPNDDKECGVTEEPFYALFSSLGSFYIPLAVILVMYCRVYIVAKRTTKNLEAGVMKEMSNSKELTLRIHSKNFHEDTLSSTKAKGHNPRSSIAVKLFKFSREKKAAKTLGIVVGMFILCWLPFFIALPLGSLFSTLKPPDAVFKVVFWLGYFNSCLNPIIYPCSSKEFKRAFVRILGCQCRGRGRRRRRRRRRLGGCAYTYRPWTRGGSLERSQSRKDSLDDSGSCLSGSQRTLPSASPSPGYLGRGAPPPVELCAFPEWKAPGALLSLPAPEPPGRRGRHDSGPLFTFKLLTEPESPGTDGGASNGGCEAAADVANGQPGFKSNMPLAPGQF
# [7] = biological target: T6, Alpha-1A adrenergic receptor (Homo sapiens, UniProt P35348); test: Binding affinity was tested on human Alpha-1A adrenergic receptor
# T6 sequence (P35348 whole entry): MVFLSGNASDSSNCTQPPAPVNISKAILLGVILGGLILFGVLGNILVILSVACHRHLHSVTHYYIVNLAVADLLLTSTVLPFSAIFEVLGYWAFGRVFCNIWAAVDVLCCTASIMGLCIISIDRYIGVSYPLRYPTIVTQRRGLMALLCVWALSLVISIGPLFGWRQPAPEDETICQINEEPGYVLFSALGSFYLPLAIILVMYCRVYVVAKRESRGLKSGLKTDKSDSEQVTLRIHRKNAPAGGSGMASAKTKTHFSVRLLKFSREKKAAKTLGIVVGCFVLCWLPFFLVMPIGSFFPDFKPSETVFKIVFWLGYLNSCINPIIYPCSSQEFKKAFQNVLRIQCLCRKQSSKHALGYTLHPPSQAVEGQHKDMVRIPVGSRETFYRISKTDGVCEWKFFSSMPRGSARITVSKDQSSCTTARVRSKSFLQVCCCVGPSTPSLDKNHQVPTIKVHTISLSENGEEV
# [8] = biological target: T7, Adrenergic receptor alpha-1 (Homo sapiens, UniProt P35348+P25100+P35368); test: pA2 for Alpha-1 adrenergic receptor from human prostate.; format: tissue-based, Prostate gland
# T7 sequence (P35348 whole entry): T6 sequence (P35348 whole entry)
# T7 sequence (P25100 whole entry): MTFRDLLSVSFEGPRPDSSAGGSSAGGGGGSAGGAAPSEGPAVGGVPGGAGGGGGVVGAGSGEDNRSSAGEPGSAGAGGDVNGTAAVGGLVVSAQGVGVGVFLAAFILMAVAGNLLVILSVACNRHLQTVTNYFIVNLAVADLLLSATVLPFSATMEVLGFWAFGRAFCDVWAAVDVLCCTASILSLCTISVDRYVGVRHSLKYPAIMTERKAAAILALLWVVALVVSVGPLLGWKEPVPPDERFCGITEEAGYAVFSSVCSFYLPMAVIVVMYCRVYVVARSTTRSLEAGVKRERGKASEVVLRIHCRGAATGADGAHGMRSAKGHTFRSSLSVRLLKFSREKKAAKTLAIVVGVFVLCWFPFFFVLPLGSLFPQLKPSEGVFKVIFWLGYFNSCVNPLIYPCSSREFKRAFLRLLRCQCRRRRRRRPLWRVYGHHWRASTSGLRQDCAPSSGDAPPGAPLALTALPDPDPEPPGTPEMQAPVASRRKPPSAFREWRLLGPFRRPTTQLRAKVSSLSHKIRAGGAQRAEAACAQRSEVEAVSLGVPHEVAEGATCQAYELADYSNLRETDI
# T7 sequence (P35368 whole entry): T5 sequence (P35368 whole entry)
# [9] = biological target: T8, Alpha-1D adrenergic receptor (Homo sapiens, UniProt P25100); test: Binding affinity was tested on human Alpha-1D adrenergic receptor
# T8 sequence (P25100 whole entry): T7 sequence (P25100 whole entry)
# Canis familiaris [10] = test: 50% reduction in intraurethral pressure (IUP) in response to hypogastric nerve stimulation or agonist (phenylephrine or norepinephrine) administration in anesthetized dog; format: functional; settings: Canis lupus familiaris; read-out: ID50 (the source's name)
# Canis familiaris [11] = test: 50% reduction in agonist induced pressor response in anesthetized dog; format: functional; settings: Canis lupus familiaris; read-out: ID50 (the source's name)
# [12] = Inhibitory concentration on human 5-alpha reductase isozyme
# [13] = biological target: T4, Steroid 5-alpha-reductase; test: Inhibition of rat 5-alpha reductase isozyme.; format: protein assay
structure (smiles),measurement,setting,value
Cc1ccc(Cl)cc1N1CCN(CCCNC(=O)c2cccc3c(=O)c(C)c(-c4ccccc4)oc23)CC1,IC50,[1],29 nM
same,IC50,[2],1 nM
CC(C)NC(=O)N(C(=O)[C@H]1CCC2C3CCC4N(C)C(=O)C=C[C@]4(C)C3CC[C@@]21C)C(C)C (stereo not given in full),IC50,[3],1220 nM
CN1C(=O)CC[C@]2(C)C3CC[C@@]4(C)C(CC[C@@H]4C(=O)N(C(=O)NC(C)(C)C)C(C)(C)C)C3CCC12 (stereo not given in full),IC50,[3],212 nM
Cc1c(-c2ccccc2)oc2c(C(=O)NCCCN3CCN(c4ccccc4OC(C)C)CC3)cccc2c1=O,IC50,[1],108 nM
same,IC50,[2],1 nM
CC(C)N(C(=O)[C@H]1CCC2C3CC=C4C=C([PH](=O)O)CC[C@]4(C)C3CC[C@@]21C)C(C)C (stereo not given in full),Ki,[4],160 nM
same,Ki,[5],7 nM
O=C(CCCN1CCC(NC(=O)c2ccccc2)CC1)c1ccccc1,Ki,[6],200 nM
same,Ki,[7],15.8 nM
same,pA2,[8],7.9
same,Ki,[9],794 nM
CC(C)(Cc1c[nH]c2ccc(Cl)cc12)NCCOc1ccccc1OCC1CC1,Ki,[6],15.8 nM
same,Ki,[7],0.631 nM
same,pA2,[8],7.3
same,Ki,[9],15.8 nM
COc1cc2nc(N3CCN(C(=O)C4CCCO4)CC3)nc(N)c2cc1OC (stereo not given) [TERAZOSIN],ED50,Canis familiaris [10],0.101 mg/kg
same,ED50,Canis familiaris [11],0.085 mg/kg
same,Ki,[9],3.98 nM
CC(C)N(C(=O)[C@H]1CCC2C3C=CC4=CC(C(=O)O)=CC[C@]4(C)C3CC[C@@]21C)C(C)C (stereo not given in full),IC50,[12],12 nM
same,IC50,[13],300 nM
CC(C)N(C(=O)[C@H]1CC[C@H]2[C@@H]3CCC4C=C(C(=O)O)CC[C@]4(C)[C@H]3CC[C@]12C)C(C)C (stereo not given in full),Ki,[4],70 nM
same,IC50,[12],30 nM
same,IC50,[13],70 nM
same,Ki,[5],30 nM
COc1cc2nc(N3CCN(C(=O)c4ccco4)CC3)nc(N)c2cc1OC [PRAZOSIN],ED50,Canis familiaris [10],0.012 mg/kg
same,ED50,Canis familiaris [11],0.011 mg/kg
CC(C)NC(=O)N(C(=O)[C@H]1CCC2C3CCC4NC(=O)CC[C@]4(C)C3CC[C@@]21C)C(C)C (stereo not given in full),IC50,[3],381 nM
C=Cc1sc2ccc(Cl)c3c2c1CN(C)CC3,Ki,[6],20 nM
same,pA2,[8],7.5
same,Ki,[9],3.16 nM
COc1ccccc1N1CCN(CCCNC(=O)c2cccc3c(=O)c(C)c(-c4ccccc4)oc23)CC1 [UPIDOSIN],IC50,[1],24 nM
same,ED50,Canis familiaris [10],0.004 mg/kg
same,ED50,Canis familiaris [11],0.109 mg/kg
same,IC50,[2],2 nM
